# Legend:
# [1] = biological target: T1, hM5 (human Muscarinic receptor subtype 5) (Homo sapiens, UniProt P08912); test: Human M5 calcium mobilization FLIPR assay; assay type: cell-based; conditions: receptor expressed in CHO cells, intracellular Ca2+ release
# T1 construct: expressed in transfected cells; host or cells: CHO cells (Chinese hamster ovary cells, ATCC)
# T1 sequence (P08912 1-532): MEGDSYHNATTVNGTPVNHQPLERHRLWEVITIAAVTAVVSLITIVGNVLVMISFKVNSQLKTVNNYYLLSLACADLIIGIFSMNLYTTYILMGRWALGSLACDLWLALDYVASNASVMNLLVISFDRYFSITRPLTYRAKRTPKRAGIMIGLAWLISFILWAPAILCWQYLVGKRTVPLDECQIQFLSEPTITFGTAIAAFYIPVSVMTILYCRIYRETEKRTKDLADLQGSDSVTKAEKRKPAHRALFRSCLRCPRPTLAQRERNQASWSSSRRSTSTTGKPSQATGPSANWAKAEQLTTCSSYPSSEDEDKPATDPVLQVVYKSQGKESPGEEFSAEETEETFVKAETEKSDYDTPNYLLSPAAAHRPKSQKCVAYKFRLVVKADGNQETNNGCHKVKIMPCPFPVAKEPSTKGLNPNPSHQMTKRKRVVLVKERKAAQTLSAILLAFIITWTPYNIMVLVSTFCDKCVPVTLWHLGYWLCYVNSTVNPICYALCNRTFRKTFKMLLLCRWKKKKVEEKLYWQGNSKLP
# Protocol: The compound activity in the present invention (EC50 or IC50) is measured using a 384 plate-based imaging assay that monitors drug induced intracellular Ca^2+ release in whole cells. Activation of hM1 (human Muscarinic receptor subtype 1, gene bank access NM_000738), rM1 (rat Muscarinic receptor subtype 1, gene bank access NM_080773), hM3 (human Muscarinic receptor subtype 3, gene bank access NM_000740NM_000740) and hM5 (human Muscarinic receptor subtype 5, gene bank access NM_0121258), receptors expressed in CHO cells (Chinese hamster ovary cells, ATCC) is quantified in a Molecular Devices FLIPR IITM instrument as an increase in fluorescent signal. Inhibition of hM3 and hM5 by compounds is determined by the decrease in fluorescent signal in response to 2 nM acetylcholine activation.
# Prior to experiment, the cell culture medium is removed from the plates by inversion. […] Plates are incubated at 37° C. for 60 minutes prior to start the experiment. The incubation is terminated by washing the cells four times in assay buffer, leaving a residual 25 μl buffer per well. Cell plates are then transferred to the FLIPR, ready for compound additions.
# The day of experiment, acetylcholine and compounds are diluted in assay buffer in three-fold concentration range (10 points serial dilution) for addition by FLIPR instrument. For all calcium assays, a baseline reading is taken for 10 seconds followed by the addition of 12.5 μl of compounds, resulting in a total well volume of 37.5 μl. Data is collected every second for 60 pictures and then every 6 seconds for 20 pictures prior to the addition of agonist. For hM3 and hM5, before agonist addition, a second baseline reading is taken for 10 seconds followed by the addition of 12.5 μl of agonist or buffer, producing a final volume of 50 μl. After agonist stimulation, the FLIPR continues to collect data every second for 60 pictures and then every 6 seconds for 20 pictures. The fluorescence emission is read using filter 1 (emission 510-570 nm) by the FLIPR on board CCD camera.
# Calcium mobilization output data are calculated as the maximal relative fluorescence unit (RFU) minus the minimal value for both compound and agonist reading frame (except for hM1 and rM1 using only the maximal RFU). Data are analyzed using sigmoidal fits of a non-linear curve-fitting program (XLfit version 4.2.2 Excel add-in version 4.2.2 build 18 math 1Q version 2.1.2 build 18). All pEC50 and pIC50 values are reported as arithmetic means±standard error of mean of ‘n’ independent experiments.
# [2] = biological target: T2, human M2 receptor (human Muscarinic receptor subtype 2) (Homo sapiens, UniProt P08172); test: hM2 receptor GTPγS binding; assay type: biochemical; conditions: CHO membranes, [35S]GTPγS binding
# T2 construct: purchased Perkin-Elmer RBHM2M; host or cells: membranes from CHO cells expressing the cloned receptor
# T2 sequence (P08172 1-466): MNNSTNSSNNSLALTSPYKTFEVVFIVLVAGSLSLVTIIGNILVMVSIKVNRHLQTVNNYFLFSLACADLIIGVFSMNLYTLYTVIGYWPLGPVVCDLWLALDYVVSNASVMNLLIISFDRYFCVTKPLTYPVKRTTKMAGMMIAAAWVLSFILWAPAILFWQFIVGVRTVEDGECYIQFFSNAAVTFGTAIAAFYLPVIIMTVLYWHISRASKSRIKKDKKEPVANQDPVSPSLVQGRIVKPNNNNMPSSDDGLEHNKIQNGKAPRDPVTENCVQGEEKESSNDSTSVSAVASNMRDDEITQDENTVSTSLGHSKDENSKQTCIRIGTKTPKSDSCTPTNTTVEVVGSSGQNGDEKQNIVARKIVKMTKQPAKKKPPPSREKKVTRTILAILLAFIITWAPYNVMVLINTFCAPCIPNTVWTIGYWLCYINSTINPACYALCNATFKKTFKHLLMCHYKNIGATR
# Protocol: Membranes produced from Chinese hamster ovary cells (CHO) expressing the cloned human M2 receptor (human Muscarinic receptor subtype 2, gene bank access NM_000739), are obtained from Perkin-Elmer (RBHM2M). The membranes are thawed at 37° C., passed 3 times through a 23-gauge blunt-end needle, diluted in the GTPγS binding buffer (50 mM Hepes, 20 mM NaOH, 100 mM NaCl, 1 mM EDTA, 5 mM MgCl2, pH 7.4, 100 μM DTT). The EC50, IC50 and Emax of the compounds of the invention are evaluated from 10-point dose-response curves (three fold concentration range) done in 60 μl in 384-well non-specific binding surface plate (Corning). Ten microliters from the dose-response curves plate (5× concentration) are transferred to another 384 well plate containing 25 μl of the following: 5 μg of hM2 membranes, 500 μg of Flashblue beads (Perkin-Elmer) and GDP 25 μM. An additional 15 μl containing 3.3× (60,000 dpm) of GTPγ^35S (0.4 nM final) are added to the wells resulting in a total well volume of 50 μl. Basal and maximal stimulated [^35S]GTPγS binding are determined in absence and presence of 30 μM final of acetylcholine agonist. The membranes/beads mix are pre-incubated for 15 minutes at room temperature with 25 μM GDP prior to distribution in plates (12.5 μM final). The reversal of acetylcholine-induced stimulation (2 μM final) of [^35S]GTPγS binding is used to assay the antagonist properties (IC50) of the compounds. The plates are incubated for 60 minutes at room temperature then centrifuged at 400 rpm for 5 minutes. The radioactivity (cpm) is counted in a Trilux (Perkin-Elmer).
# Values of EC50, IC50 and Emax are obtained using sigmoidal fits of a non-linear curve-fitting program (XLfit version 4.2.2 Excel add-in version 4.2.2 build 18 math 1Q version 2.1.2 build 18) of percent stimulated [^35S]GTPγS binding vs. log(molar ligand). All pEC50 and pIC50 values are reported as arithmetic means±standard error of mean of ‘n’ independent experiments.
SMILES,EC50 [1],EC50 [2]
"CCOC(=O)N1CCC(C)(N2CCC(N3C(=O)CO[C@H]4CCCC[C@@H]43)CC2)C1 (single isomer, unassigned) [Example 18]",> 40 µM,3.7 µM
"CCOC(=O)N1CCC(C)(N2CCC(N3C(=O)CO[C@H]4CCCC[C@@H]43)CC2)C1 (single isomer, unassigned) [Example 19]",> 40 µM,> 40 µM
"CCOC(=O)N1CCC(N2CCC(N3C(=O)NC[C@H]4CCCC[C@@H]43)CC2)CC1 [Example 1, Ethyl 4-[4-[(4aR,8aS)-2-oxo-3,4,4a,5,6,7,8,8a-octahydroquinazolin-1-y]-1-piperidyl]piperidine-1-carboxylate]",,0.38 µM
"CC(C)OC(=O)N1CCC(N2CCC(N3C(=O)NC[C@H]4CCCC[C@@H]43)CC2)CC1 [Example 2, Propan-2-yl 4-[4-[(4aR,8aS)-2-oxo-3,4,4a,5,6,7,8,8a-octahydroquinazolin-1-yl]-1-piperidyl]piperidine-1-carboxylate]",> 49.2 µM,> 1.2 µM
"O=C(C1CC1)N1CCC(N2CCC(N3C(=O)NC[C@H]4CCCC[C@@H]43)CC2)CC1 [Example 3, (4aR,8aS)-1-[1-[1-(cyclopropanecarbonyl)-4-piperidyl]-4-piperidyl]-3,4,4a,5,6,7,8,8a-octahydroquinazolin-2-one]",> 31.1 µM,> 12 µM
"Cc1ccccc1C(=O)N1CCC(N2CCC(N3C(=O)NC[C@H]4CCCC[C@@H]43)CC2)CC1 [Example 4, (4aR,8aS)-1-[1-[1-(2-methylbenzoyl)-4-piperidyl]-4-piperidyl]-3,4,4a,5,6,7,8,8a-octahydroquinazolin-2-one]",> 49.2 µM,> 30 µM
"CC(C)OC(=O)N1CCC(N2CCC(N3C(=O)N(C)C[C@H]4CCCC[C@@H]43)CC2)CC1 [Example 6, Propan-2-yl 4-[4-[(4aR,8aS)-3-methyl-2-oxo-4a,5,6,7,8,8a-hexahydro-4H-quinazolin-1-yl]-1-piperidyl]piperidine-1-carboxylate]",> 40 µM,> 30 µM
"CCOC(=O)N1CCC(C)(N2CCC(N3C(=O)NC[C@H]4CCCC[C@@H]43)CC2)CC1 [Example 7, Ethyl 4-[4-[(4aR,8aS)-2-oxo-3,4,4a,5,6,7,8,8a-octahydroquinazolin-1-yl]-1-piperidyl]-4-methyl-piperidine-1-carboxylate]",0.168 µM,0.07 µM
"CC(C)OC(=O)N1CCC(C)(N2CCC(N3C(=O)NC[C@H]4CCCC[C@@H]43)CC2)CC1 [Example 8, Propan-2-yl 4-[4-[(4aR,8aS)-2-oxo-3,4,4a,5,6,7,8,8a-octahydroquinazolin-1-yl]-1-piperidyl]-4-methyl-piperidine-1-carboxylate]",> 40 µM,> 30 µM
"CCOC(=O)N1CCC(N2CCC(N3C(=O)CO[C@H]4CCCC[C@@H]43)CC2)CC1 [Example 9, Ethyl 4-[4-[(1S,6S)-9-oxo-7-oxa-10-azabicyclo[4.4.0]dec-10-yl]-1-piperidyl]piperidine-1-carboxylate]",0.0977 µM,2.5 µM
"CC(C)OC(=O)N1CCC(N2CCC(N3C(=O)CO[C@H]4CCCC[C@@H]43)CC2)CC1 [Example 10, Propan-2-yl 4-[4-[(1S,6S)-9-oxo-7-oxa-10-azabicyclo[4.4.0]dec-10-yl]-1-piperidyl]piperidine-1-carboxylate]",> 40 µM,> 6.6 µM
"Cc1ccccc1C(=O)N1CCC(N2CCC(N3C(=O)CO[C@H]4CCCC[C@@H]43)CC2)CC1 [Example 11, (1S,6S)-10-[1-[1-(2-methylbenzoyl)-4-piperidyl]-4-piperidyl]-7-oxa-10-azabicyclo[4.4.0]decan-9-one]",> 40 µM,> 30 µM
"Cn1cccc1C(=O)N1CCC(N2CCC(N3C(=O)CO[C@H]4CCCC[C@@H]43)CC2)CC1 [Example 12, (1S,6S)-10-[1-[1-(1-methylpyrrole-2-carbonyl)-4-piperidyl]-4-piperidyl]-7-oxa-10-azabicyclo[4.4.0]decan-9-one]",> 40 µM,> 30 µM
"CCOC(=O)N1CC[C@H](N2CCC(N3C(=O)CO[C@H]4CCCC[C@@H]43)CC2)C1 [Example 13, Ethyl (3S)-3-[4-[(1S,6S)-9-oxo-7-oxa-10-azabicyclo[4.4.0]dec-10-yl]-1-piperidyl]pyrrolidine-1-carboxylate]",> 40 µM,> 30 µM
"CC(C)OC(=O)N1CCC(N2CCC(N3C(=O)CO[C@@H]4CCCC[C@H]43)CC2)CC1 [Example 14, Propan-2-yl 4-[4-[(1R,6R)-9-oxo-7-oxa-10-azabicyclo[4.4.0]dec-10yl]-1-piperidyl]piperidine-1-carboxylate]",> 40 µM,> 30 µM
"CCOC(=O)N1CCC(N2CCC(N3C(=O)OC[C@H]4CCCC[C@@H]43)CC2)CC1 [Example 15, Ethyl 4-[4-[(1S,6S)-9-oxo-8-oxa-10-azabicyclo[4.4.0]dec-10-yl]-1-piperidyl]piperidine-1-carboxylate]",> 40 µM,> 12 µM

# — US20090221567A1, “MUSCARINIC RECEPTOR AGONISTS, COMPOSITIONS, METHODS OF TREATMENT THEREOF, AND PROCESSES FOR PREPARATION THEREOF 177” (ASTRAZENECA AB, priority 2008, published 2009)
